Data published in ChEMBL document CHEMBL4610048, “Design, synthesis, and evaluation of novel 4-amino-2-(4-benzylpiperazin-1-yl)methylbenzonitrile compounds as Zika inhibitors” (Bioorg Med Chem Lett, 2020).
Activity calls are given as the source filed them. The calls are words filed in the database; no cut-off is given here.

Legend:
Zika virus [1] = test: Antiviral activity against Zika virus infected in African green monkey Vero E6 cells assessed as inhibition of viral induced cytopathic effect at 10 uM relative to control; format: functional; conditions: Vero C1008
[2] = Cytotoxicity against African green monkey Vero E6 cells assessed as cell viability at 10 uM relative to control; format: cell-based, Vero C1008; conditions: chlorocebus sabaeus, read-out: Activity
[3] = Cytotoxicity against African green monkey Vero E6 cells assessed as reduction in cell viability; format: cell-based, Vero C1008; conditions: chlorocebus sabaeus
Zika virus [4] = test: Antiviral activity against Zika virus infected in African green monkey Vero E6 cells assessed as reduction in viral induced cytopathic effect; format: functional, organism-based; conditions: Vero C1008
[5] = Selectivity index, ratio of CC50 for African green monkey Vero E6 cells to EC50 for Zika virus infected in African green monkey Vero E6 cells assessed as inhibition of viral induced cytopathic effect; format: toxicity, Vero C1008; conditions: read-out: Ratio CC50/EC50
Zika virus [6] = test: Antiviral activity against Zika virus infected in African green monkey Vero E6 cells assessed as suppression of viral envelope protein expression at 1.25 to 10 uM incubated for 96 hrs by Western blot analysis; format: functional, organism-based; conditions: Vero C1008
Zika virus [7] = test: Antiviral activity against Zika virus infected in African green monkey Vero E6 cells assessed as suppression of viral RNA synthesis at 1.25 to 10 uM incubated for 96 hrs by qRT-PCR analysis; format: functional, organism-based; conditions: Vero C1008
Zika virus [8] = test: Antiviral activity against Zika virus infected in African green monkey Vero E6 cells assessed as inhibition of viral induced cytopathic effect at 40 uM relative to control; format: functional; conditions: Vero C1008
[9] = Cytotoxicity against African green monkey Vero E6 cells assessed as cell viability at 40 uM relative to control; format: cell-based, Vero C1008; conditions: chlorocebus sabaeus, read-out: Activity
Zika virus [10] = test: Antiviral activity against Zika virus infected in African green monkey Vero E6 cells assessed as suppression of viral envelope protein expression at 10 uM incubated for 96 hrs by Western blot analysis; format: functional, organism-based; conditions: Vero C1008
Zika virus [11] = test: Antiviral activity against Zika virus infected in African green monkey Vero E6 cells assessed as suppression of viral RNA synthesis at 10 uM incubated for 96 hrs by qRT-PCR analysis; format: functional, organism-based; conditions: Vero C1008
Zika virus [12] = test: Antiviral activity against Zika virus infected in African green monkey Vero E6 cells assessed as suppression of viral envelope protein expression incubated for 96 hrs by Western blot analysis; format: functional, organism-based; conditions: Vero C1008
Zika virus [13] = test: Antiviral activity against Zika virus infected in African green monkey Vero E6 cells assessed as suppression of viral RNA synthesis incubated for 96 hrs by qRT-PCR analysis; format: functional, organism-based; conditions: Vero C1008

Compound: CN(C)CCN(C)c1ccc(C#N)c(CN2CCN(Cc3cccc(Cl)c3)CC2)c1
- inhibition at 10 µM (Zika virus [1]): 54.8%
- viability at 10 µM [2]: 73.6%

Compound: CN1CCCN(c2ccc(C#N)c(CN3CCN(Cc4ccc(C#N)cc4)CC3)c2)CC1
- inhibition at 10 µM (Zika virus [1]): 77.4%
- viability at 10 µM [2]: 76%
- CC50 [3]: > 100 µM
- EC50 (Zika virus [4]): 4.4 µM
- selectivity ratio [5]: > 22
- inhibition (Zika virus [6]): inactive
- inhibition (Zika virus [7]): inactive

Compound: N#Cc1ccc(N2CCNCC2)cc1CN1CCN(Cc2ccc(C(F)(F)F)cc2)CC1
- inhibition at 10 µM (Zika virus [1]): 0.5%
- viability at 10 µM [2]: 89%

Compound: CN(C)CCN(C)c1ccc(C#N)c(CN2CCN(Cc3ccc(C#N)cc3)CC2)c1
- inhibition at 10 µM (Zika virus [1]): 75.5%
- viability at 10 µM [2]: 77.4%
- CC50 [3]: 66 µM
- EC50 (Zika virus [4]): 5.6 µM
- selectivity ratio [5]: 10

Compound: CN(C)CCN(C)c1ccc(C#N)c(CN2CCN(Cc3ccc(F)cc3)CC2)c1
- inhibition at 10 µM (Zika virus [1]): 60.7%
- viability at 10 µM [2]: 85.1%

Compound: CC(c1ccccc1)N1CCN(Cc2cc(N(C)CCN(C)C)ccc2C#N)CC1 (stereo not given)
- inhibition at 10 µM (Zika virus [1]): 43%
- viability at 10 µM [2]: 64.7%

Compound: N#Cc1ccc(NCCn2cccc2)cc1CN1CCN(Cc2ccc(C(F)(F)F)cc2)CC1
- inhibition at 10 µM (Zika virus [1]): 56.2%
- viability at 10 µM [2]: 75.7%

Compound: N#Cc1ccc(CN2CCN(Cc3ccc(C#N)cc3)CC2)cc1
- inhibition at 10 µM (Zika virus [1]): 12.6%
- viability at 10 µM [2]: 89.6%

Compound: CN1CCCN(c2ccc(C#N)c(CN3CCN(Cc4ccccc4)CC3)c2)CC1
- inhibition at 10 µM (Zika virus [1]): 84.3%
- viability at 10 µM [2]: 93.6%
- CC50 [3]: > 100 µM
- EC50 (Zika virus [4]): 5.3 µM
- selectivity ratio [5]: > 19

Compound: CN(C)CCOc1ccc(C#N)c(CN2CCN(Cc3ccc(C(F)(F)F)cc3)CC2)c1
- inhibition at 10 µM (Zika virus [1]): 32.8%
- viability at 10 µM [2]: 80.1%

Compound: CN1CCCN(c2ccc(C#N)c(CN3CCN(Cc4ccc(F)cc4)CC3)c2)CC1
- inhibition at 10 µM (Zika virus [1]): 55.1%
- viability at 10 µM [2]: 79.3%

Compound: N#Cc1ccc(NCCN2CCOCC2)cc1CN1CCN(Cc2ccc(C(F)(F)F)cc2)CC1
- inhibition at 10 µM (Zika virus [1]): 47.5%
- viability at 10 µM [2]: 79.2%

Compound: COc1ccc(CN2CCN(Cc3cc(N4CCCN(C)CC4)ccc3C#N)CC2)cc1
- inhibition at 10 µM (Zika virus [1]): 59.2%
- viability at 10 µM [2]: 65.8%

Compound: CC(c1ccccc1)N1CCN(Cc2ccccc2C#N)CC1 (stereo not given)
- inhibition at 10 µM (Zika virus [1]): 35.8%
- viability at 10 µM [2]: 77.5%

Compound: CN(C)CCN(C)c1ccc(C#N)c(CN2CCN(Cc3ccc(Cl)cc3)CC2)c1
- inhibition at 10 µM (Zika virus [1]): 50.9%
- viability at 10 µM [2]: 82.1%

Compound: CN1CCN(c2ccc(C#N)c(CN3CCN(Cc4ccc(C(F)(F)F)cc4)CC3)c2)CC1
- inhibition at 10 µM (Zika virus [1]): 0.3%
- viability at 10 µM [2]: 84.5%

Compound: N#Cc1ccccc1CN1CCN(Cc2ccccc2C#N)CC1
- inhibition at 10 µM (Zika virus [1]): 34.7%
- viability at 10 µM [2]: 93.8%

Compound: N#Cc1ccc(NCCCn2ccnc2)cc1CN1CCN(Cc2ccc(F)cc2)CC1
- inhibition at 10 µM (Zika virus [1]): 58.3%
- viability at 10 µM [2]: 96.5%

Compound: CN1CCCN(c2ccc(C#N)c(CN3CCN(Cc4ccc(C(F)(F)F)cc4)CC3)c2)CC1
- inhibition at 10 µM (Zika virus [1]): 47.5%
- viability at 10 µM [2]: 81.3%

Compound: NC(=O)c1ncn([C@@H]2O[C@H](CO)[C@@H](O)[C@H]2O)n1 [RIBAVIRIN]
- inhibition at 40 µM (Zika virus [8]): 37%
- viability at 40 µM [9]: 94.5%
- CC50 [3]: > 100 µM
- EC50 (Zika virus [4]): 33 µM
- selectivity ratio [5]: > 3

Compound: CN(C)c1ccc(C#N)c(CN2CCN(Cc3ccc(C(F)(F)F)cc3)CC2)c1
- inhibition at 10 µM (Zika virus [1]): 19.2%
- viability at 10 µM [2]: 90.5%

Compound: CN(CCc1ccccc1)c1ccc(C#N)c(CN2CCN(Cc3ccc(C(F)(F)F)cc3)CC2)c1
- inhibition at 10 µM (Zika virus [1]): 35.1%
- viability at 10 µM [2]: 73.6%

Compound: CC(=O)N1CCN(c2ccc(C#N)c(CN3CCN(Cc4ccc(C(F)(F)F)cc4)CC3)c2)CC1
- inhibition at 10 µM (Zika virus [1]): 15.1%
- viability at 10 µM [2]: 89.1%

Compound: N#Cc1ccc(NCCCn2ccnc2)cc1CN1CCN(Cc2ccc(C(F)(F)F)cc2)CC1
- inhibition at 10 µM (Zika virus [1]): 66.5%
- viability at 10 µM [2]: 70%
- CC50 [3]: 23.7 µM
- EC50 (Zika virus [4]): 4.9 µM
- selectivity ratio [5]: 5
- inhibition (Zika virus [10]): Active
- inhibition (Zika virus [11]): Active

Compound: CN(C)CCN(C)c1ccc(C#N)c(CN2CCN(C3CCc4ccccc4C3)CC2)c1 (stereo not given)
- inhibition at 10 µM (Zika virus [1]): 81.8%
- viability at 10 µM [2]: 67.8%

Compound: CN1CCCN(c2ccc(C#N)c(CN3CCN(Cc4ccccc4C#N)CC3)c2)CC1
- inhibition at 10 µM (Zika virus [1]): 36.2%
- viability at 10 µM [2]: 87.1%

Compound: CC(c1ccccc1)N1CCN(Cc2cc(N3CCCN(C)CC3)ccc2C#N)CC1 (stereo not given)
- inhibition at 10 µM (Zika virus [1]): 26.7%
- viability at 10 µM [2]: 55.1%

Compound: CN(C)CCN(C)c1ccc(C#N)c(CN2CCN(Cc3ccccc3Cl)CC2)c1
- inhibition at 10 µM (Zika virus [1]): 70.4%
- viability at 10 µM [2]: 86.1%
- CC50 [3]: > 100 µM
- EC50 (Zika virus [4]): 5.1 µM
- selectivity ratio [5]: > 20
- inhibition (Zika virus [12]): Dose-dependent effect
- inhibition (Zika virus [13]): Dose-dependent effect
